Results taken from PubChem BioAssay AID2060486 (Molecular Pharmacology Branch, DTP, NCI, 2025).
pIC50: −log10 of the molar value.

System: IGROV1 complex spheroids (HUVEC, MSC), viability % test/control
Experiment: Anticancer human tumor IGROV1 cell line growth inhibition [GQUAD];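 also: spheroids exposed to compounds for 7 days before readout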;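 as to viability, T/C: 100% = DMSO vehicle control viability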
Settings: for pIC50: curve of first compound; for viability, T/C: stronger effect = lower value
How it was run: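 Viability of tumor cells grown as complex spheroids with endothelial and stromal cells, exposed to drug combinations. Top concentration at or near clinical Cmax (else 10 microM), diluted in half-log increments.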

[1] = second compound 0.0316 µM, first compound 0.000999 µM
[2] = second compound 0.0316 µM, first compound 0.00316 µM
[3] = second compound 0.0316 µM, first compound 0.00999 µM
[4] = second compound 0.0316 µM, first compound 0.0316 µM
[5] = second compound 0.0316 µM, first compound 0.0999 µM
[6] = second compound 0.0316 µM, first compound 0.316 µM
[7] = second compound 0.1 µM, first compound 0.000999 µM
[8] = second compound 0.1 µM, first compound 0.00316 µM
[9] = second compound 0.1 µM, first compound 0.00999 µM
[10] = second compound 0.1 µM, first compound 0.0316 µM
[11] = second compound 0.1 µM, first compound 0.0999 µM
[12] = second compound 0.1 µM, first compound 0.316 µM
[13] = second compound 0.316 µM, first compound 0.000999 µM
[14] = second compound 0.316 µM, first compound 0.00316 µM
[15] = second compound 0.316 µM, first compound 0.00999 µM
[16] = second compound 0.316 µM, first compound 0.0316 µM
[17] = second compound 0.316 µM, first compound 0.0999 µM
[18] = second compound 0.316 µM, first compound 0.316 µM
[19] = second compound 1 µM, first compound 0.000999 µM
[20] = second compound 1 µM, first compound 0.00316 µM
[21] = second compound 1 µM, first compound 0.00999 µM
[22] = second compound 1 µM, first compound 0.0316 µM
[23] = second compound 1 µM, first compound 0.0999 µM
[24] = second compound 1 µM, first compound 0.316 µM
[25] = second compound 3.16 µM, first compound 0.000999 µM
[26] = second compound 3.16 µM, first compound 0.00316 µM
[27] = second compound 3.16 µM, first compound 0.00999 µM
[28] = second compound 3.16 µM, first compound 0.0316 µM
[29] = second compound 3.16 µM, first compound 0.0999 µM
[30] = second compound 3.16 µM, first compound 0.316 µM
[31] = second compound 10 µM, first compound 0.000999 µM
[32] = second compound 10 µM, first compound 0.00316 µM
[33] = second compound 10 µM, first compound 0.00999 µM
[34] = second compound 10 µM, first compound 0.0316 µM
[35] = second compound 10 µM, first compound 0.0999 µM
[36] = second compound 10 µM, first compound 0.316 µM

## Cn1ncnc1[C@H]1c2n[nH]c(=O)c3cc(F)cc(c23)N[C@@H]1c1ccc(F)cc1 + Cc1cnc(CNC(=O)c2c(=O)c3ccc(N4CCCN(C)CC4)nc3n3c2sc2ccccc23)cn1
Second compound 0.0316 µM
  pIC50: 7.66
Second compound 0.1 µM
  pIC50: > 9.00
Second compound 0.316 µM
  pIC50: > 9.00
Second compound 1 µM
  pIC50: > 9.00
Second compound 3.16 µM
  pIC50: > 9.00
Second compound 10 µM
  pIC50: > 9.00
[1]
  viability, T/C: 73.9%
[2]
  viability, T/C: 67.1%
[3]
  viability, T/C: 60%
[4]
  viability, T/C: 41%
[5]
  viability, T/C: 38.5%
[6]
  viability, T/C: 19.3%
[7]
  viability, T/C: 44.2%
[8]
  viability, T/C: 34.8%
[9]
  viability, T/C: 30.9%
[10]
  viability, T/C: 21.6%
[11]
  viability, T/C: 21.6%
[12]
  viability, T/C: 19%
[13]
  viability, T/C: 29.5%
[14]
  viability, T/C: 18.9%
[15]
  viability, T/C: 20.2%
[16]
  viability, T/C: 16.8%
[17]
  viability, T/C: 16.5%
[18]
  viability, T/C: 12.4%
[19]
  viability, T/C: 17.3%
[20]
  viability, T/C: 11%
[21]
  viability, T/C: 14.8%
[22]
  viability, T/C: 14%
[23]
  viability, T/C: 12.7%
[24]
  viability, T/C: 12.1%
[25]
  viability, T/C: 11.3%
[26]
  viability, T/C: 8.42%
[27]
  viability, T/C: 10.4%
[28]
  viability, T/C: 13.2%
[29]
  viability, T/C: 9.17%
[30]
  viability, T/C: 7.53%
[31]
  viability, T/C: 8.16%
[32]
  viability, T/C: 10%
[33]
  viability, T/C: 10.5%
[34]
  viability, T/C: 9.96%
[35]
  viability, T/C: 10.5%
[36]
  viability, T/C: 8.19%

## CCc1c2c(nc3ccc(O)cc13)-c1cc3c(c(=O)n1C2)COC(=O)[C@]3(O)CC + Cc1cnc(CNC(=O)c2c(=O)c3ccc(N4CCCN(C)CC4)nc3n3c2sc2ccccc23)cn1
Second compound 0.0316 µM
  pIC50: > 9.00
Second compound 0.1 µM
  pIC50: > 9.00
Second compound 0.316 µM
  pIC50: > 9.00
Second compound 1 µM
  pIC50: > 9.00
Second compound 3.16 µM
  pIC50: > 9.00
Second compound 10 µM
  pIC50: > 9.00
[1]
  viability, T/C: 31.5%
[2]
  viability, T/C: 13.3%
[3]
  viability, T/C: 9.95%
[4]
  viability, T/C: 8.54%
[5]
  viability, T/C: 4.31%
[6]
  viability, T/C: 1.99%
[7]
  viability, T/C: 17.2%
[8]
  viability, T/C: 8.8%
[9]
  viability, T/C: 9.75%
[10]
  viability, T/C: 7.73%
[11]
  viability, T/C: 4.92%
[12]
  viability, T/C: 2.18%
[13]
  viability, T/C: 14.4%
[14]
  viability, T/C: 10.9%
[15]
  viability, T/C: 8.79%
[16]
  viability, T/C: 6.94%
[17]
  viability, T/C: 6.74%
[18]
  viability, T/C: 2.05%
[19]
  viability, T/C: 10.6%
[20]
  viability, T/C: 10.6%
[21]
  viability, T/C: 9.03%
[22]
  viability, T/C: 9.75%
[23]
  viability, T/C: 5.59%
[24]
  viability, T/C: 1.55%
[25]
  viability, T/C: 11.3%
[26]
  viability, T/C: 7%
[27]
  viability, T/C: 6.92%
[28]
  viability, T/C: 5.6%
[29]
  viability, T/C: 3.86%
[30]
  viability, T/C: 0.83%
[31]
  viability, T/C: 7.27%
[32]
  viability, T/C: 8.08%
[33]
  viability, T/C: 7.06%
[34]
  viability, T/C: 6.04%
[35]
  viability, T/C: 3.78%
[36]
  viability, T/C: 0.4%
